Experimental data published in paper PMC4412288, “Crystal Structures of the Carboxyl cGMP Binding Domain of the Plasmodium falciparum cGMP-dependent Protein Kinase Reveal a Novel Capping Triad Crucial for Merozoite Egress” (PLoS Pathogens, 2015).
Values joined by “and” are separate entries in the source; they are usually repeats but may differ in a detail not shown here. Equal entries are not always repeated.

Key:
[1] = molecular target: T1, PfPKG full regulatory domain (1–542) R484A (Plasmodium falciparum, UniProt Q8I719, R484A); format: binding; conditions: read-out: EC50 ± SEM (n) competition experiments
T1 construct: PfPKG full regulatory domain (1–542); His-tag (pQTEV, TEV site) (N, cleaved yes); made in house; host or cells: E. coli TP2000 (delta-cya)
Procedure: (§1) Measurements were performed in 150 mM NaCl, 20 mM MOPS plus 0.005% (w/v) CHAPS pH 7.0 using the Fusion a-FP microtiter plate reader at room temperature in a 384 well microtiterplate (Perkin Elmer, Optiplate, black). […] The KD values were calculated from sigmoidal dose-response curves.
(§2) For competition FP experiments, the protein concentration and the concentration of 8-Fluo-cGMP were fixed to give a polarization signal that was 50% of the maximum value obtained from direct FP measurements. […] FP signals were detected as indicated above. […] The EC50 values were calculated from sigmoidal dose-response curves.

[2] = molecular target: T2, PfPKG CNB-D (401–542) Q532A (Plasmodium falciparum, UniProt Q8I719, Q532A); format: binding; conditions: PfCNB-D Q532A; read-out: EC50 ± SEM (n) competition experiments
T2 construct: 401–542 for CNB-D; His-tag (pQTEV, TEV site) (N, cleaved yes); made in house; host or cells: E. coli TP2000 (delta-cya)
T2 sequence (Q8I719 401-542 Q532A): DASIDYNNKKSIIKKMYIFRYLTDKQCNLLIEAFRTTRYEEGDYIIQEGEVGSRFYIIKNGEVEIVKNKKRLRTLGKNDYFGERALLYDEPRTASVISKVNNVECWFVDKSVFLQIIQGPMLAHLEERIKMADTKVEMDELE
Procedure: as §1, §2

[3] = molecular target: T3, PfPKG PfCNB-A (residues 1–173) (Plasmodium falciparum, UniProt Q8I719); format: binding; conditions: competition with 8-Fluo-cGMP, read-out: EC50 ± SEM (n) competition measurements
T3 construct: residues 1–173 for CNB-A; His-tag (pQTEV, TEV site) (N, cleaved yes); made in house; host or cells: E. coli TP2000 (delta-cya)
T3 sequence (Q8I719 1-173): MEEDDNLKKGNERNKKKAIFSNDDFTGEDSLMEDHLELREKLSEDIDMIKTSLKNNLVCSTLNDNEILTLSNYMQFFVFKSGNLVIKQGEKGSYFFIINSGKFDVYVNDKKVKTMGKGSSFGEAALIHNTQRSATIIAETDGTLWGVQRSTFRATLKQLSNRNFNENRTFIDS
Procedure: as §1, §2

[4] = molecular target: T4, PfPKG CNB-D (401–542) R484A/Q532A/D533A (Plasmodium falciparum, UniProt Q8I719, D533A/Q532A/R484A); format: binding; conditions: PfCNB-D R484A/Q532A/D533A; read-out: EC50 ± SEM (n) competition experiments
T4 construct: 401–542 for CNB-D; His-tag (pQTEV, TEV site) (N, cleaved yes); made in house; host or cells: E. coli TP2000 (delta-cya)
T4 sequence (Q8I719 401-542 R484A/Q532A/D533A): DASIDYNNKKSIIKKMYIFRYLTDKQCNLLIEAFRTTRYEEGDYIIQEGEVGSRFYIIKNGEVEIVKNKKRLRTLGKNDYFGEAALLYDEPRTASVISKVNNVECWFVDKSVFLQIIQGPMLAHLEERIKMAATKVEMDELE
Procedure: as §1, §2

[5] = molecular target: T5, PfPKG full regulatory domain (1–542) Wild type (Plasmodium falciparum, UniProt Q8I719); format: binding; conditions: read-out: EC50 ± SEM (n) competition experiments
T5 construct: PfPKG full regulatory domain (1–542); His-tag (pQTEV, TEV site) (N, cleaved yes); made in house; host or cells: E. coli TP2000 (delta-cya)
T5 sequence (Q8I719 1-542): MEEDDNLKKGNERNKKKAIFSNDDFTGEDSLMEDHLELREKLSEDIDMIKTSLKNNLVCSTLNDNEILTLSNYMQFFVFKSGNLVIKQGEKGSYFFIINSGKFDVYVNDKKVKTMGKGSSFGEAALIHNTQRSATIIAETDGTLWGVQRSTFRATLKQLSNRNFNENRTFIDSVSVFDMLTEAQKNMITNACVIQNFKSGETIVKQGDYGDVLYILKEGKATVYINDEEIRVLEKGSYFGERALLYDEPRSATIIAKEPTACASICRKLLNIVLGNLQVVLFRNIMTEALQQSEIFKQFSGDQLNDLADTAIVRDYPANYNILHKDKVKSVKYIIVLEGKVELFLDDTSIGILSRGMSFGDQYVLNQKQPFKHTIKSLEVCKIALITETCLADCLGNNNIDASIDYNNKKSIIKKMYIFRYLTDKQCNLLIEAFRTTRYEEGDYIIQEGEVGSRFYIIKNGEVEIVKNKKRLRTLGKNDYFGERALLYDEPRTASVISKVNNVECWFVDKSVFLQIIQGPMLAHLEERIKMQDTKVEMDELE
Procedure: as §1, §2

[6] = molecular target: T6, PfPKG full regulatory domain (1–542) D533A (Plasmodium falciparum, UniProt Q8I719, D533A); format: binding; conditions: read-out: EC50 ± SEM (n) competition experiments
T6 construct: PfPKG full regulatory domain (1–542); His-tag (pQTEV, TEV site) (N, cleaved yes); made in house; host or cells: E. coli TP2000 (delta-cya)
T6 sequence (Q8I719 1-542 D533A): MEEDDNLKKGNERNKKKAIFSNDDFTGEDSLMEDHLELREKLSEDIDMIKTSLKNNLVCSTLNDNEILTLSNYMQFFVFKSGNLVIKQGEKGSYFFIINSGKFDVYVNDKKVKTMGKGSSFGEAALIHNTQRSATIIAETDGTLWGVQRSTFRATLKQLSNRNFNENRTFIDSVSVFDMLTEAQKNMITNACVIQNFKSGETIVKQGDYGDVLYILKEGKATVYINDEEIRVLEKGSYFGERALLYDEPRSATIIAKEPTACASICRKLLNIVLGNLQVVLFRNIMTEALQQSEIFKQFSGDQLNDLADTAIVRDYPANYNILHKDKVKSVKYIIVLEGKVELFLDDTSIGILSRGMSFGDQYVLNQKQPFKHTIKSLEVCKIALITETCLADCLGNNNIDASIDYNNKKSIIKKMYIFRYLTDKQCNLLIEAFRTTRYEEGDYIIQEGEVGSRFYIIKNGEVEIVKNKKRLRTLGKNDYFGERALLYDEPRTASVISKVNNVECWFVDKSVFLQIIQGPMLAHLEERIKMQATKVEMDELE
Procedure: as §1, §2

[7] = molecular target: T7, PfPKG full regulatory domain (1–542) R484A/Q532A/D533A (Plasmodium falciparum, UniProt Q8I719, D533A/Q532A/R484A); format: binding; conditions: read-out: EC50 ± SEM (n) competition experiments
T7 construct: PfPKG full regulatory domain (1–542); His-tag (pQTEV, TEV site) (N, cleaved yes); made in house; host or cells: E. coli TP2000 (delta-cya)
T7 sequence (Q8I719 1-542 R484A/Q532A/D533A): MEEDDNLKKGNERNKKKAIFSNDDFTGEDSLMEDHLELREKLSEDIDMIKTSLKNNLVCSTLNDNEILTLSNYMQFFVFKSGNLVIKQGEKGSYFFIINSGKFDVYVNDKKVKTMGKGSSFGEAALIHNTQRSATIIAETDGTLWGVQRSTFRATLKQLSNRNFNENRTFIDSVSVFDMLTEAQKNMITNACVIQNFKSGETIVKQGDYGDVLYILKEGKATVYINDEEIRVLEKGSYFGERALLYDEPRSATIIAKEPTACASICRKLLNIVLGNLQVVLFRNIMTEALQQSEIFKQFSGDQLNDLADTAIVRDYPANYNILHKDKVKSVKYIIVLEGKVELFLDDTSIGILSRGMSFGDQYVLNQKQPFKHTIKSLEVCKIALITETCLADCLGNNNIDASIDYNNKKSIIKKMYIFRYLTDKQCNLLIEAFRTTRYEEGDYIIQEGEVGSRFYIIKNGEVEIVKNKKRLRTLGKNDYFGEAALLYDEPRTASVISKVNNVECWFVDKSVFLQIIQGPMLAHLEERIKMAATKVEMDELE
Procedure: as §1, §2

[8] = molecular target: T8, PfPKG CNB-D (401–542) R484A (Plasmodium falciparum, UniProt Q8I719, R484A); format: binding; conditions: PfCNB-D R484A; read-out: EC50 ± SEM (n) competition experiments
T8 construct: 401–542 for CNB-D; His-tag (pQTEV, TEV site) (N, cleaved yes); made in house; host or cells: E. coli TP2000 (delta-cya)
T8 sequence (Q8I719 401-542 R484A): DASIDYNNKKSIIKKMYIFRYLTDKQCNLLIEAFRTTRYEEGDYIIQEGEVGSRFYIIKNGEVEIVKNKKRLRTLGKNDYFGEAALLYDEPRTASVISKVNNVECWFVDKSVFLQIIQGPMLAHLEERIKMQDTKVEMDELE
Procedure: as §1, §2

[9] = molecular target: T9, PfPKG CNB-D (401–542) D533A (Plasmodium falciparum, UniProt Q8I719, D533A); format: binding; conditions: PfCNB-D D533A; read-out: EC50 ± SEM (n) competition experiments
T9 construct: 401–542 for CNB-D; His-tag (pQTEV, TEV site) (N, cleaved yes); made in house; host or cells: E. coli TP2000 (delta-cya)
T9 sequence (Q8I719 401-542 D533A): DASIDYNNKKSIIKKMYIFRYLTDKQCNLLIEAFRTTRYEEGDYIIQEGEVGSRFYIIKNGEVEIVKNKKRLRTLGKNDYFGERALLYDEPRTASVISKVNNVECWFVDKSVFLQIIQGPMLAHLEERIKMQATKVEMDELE
Procedure: as §1, §2

[10] = molecular target: T10, PfPKG CNB-D (401–542) Wild type (Plasmodium falciparum, UniProt Q8I719); format: binding
T10 construct: 401–542 for CNB-D; His-tag (pQTEV, TEV site) (N, cleaved yes); made in house; host or cells: E. coli TP2000 (delta-cya)
T10 sequence (Q8I719 401-542): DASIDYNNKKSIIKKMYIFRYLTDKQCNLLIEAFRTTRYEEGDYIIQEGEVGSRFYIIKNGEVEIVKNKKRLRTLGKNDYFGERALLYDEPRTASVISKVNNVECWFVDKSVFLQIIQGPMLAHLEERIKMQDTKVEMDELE
Procedure: as §1, §2

[11] = molecular target: T11, PfPKG full regulatory domain (1–542) Q532A (Plasmodium falciparum, UniProt Q8I719, Q532A); format: binding; conditions: read-out: EC50 ± SEM (n) competition experiments
T11 construct: PfPKG full regulatory domain (1–542); His-tag (pQTEV, TEV site) (N, cleaved yes); made in house; host or cells: E. coli TP2000 (delta-cya)
T11 sequence (Q8I719 1-542 Q532A): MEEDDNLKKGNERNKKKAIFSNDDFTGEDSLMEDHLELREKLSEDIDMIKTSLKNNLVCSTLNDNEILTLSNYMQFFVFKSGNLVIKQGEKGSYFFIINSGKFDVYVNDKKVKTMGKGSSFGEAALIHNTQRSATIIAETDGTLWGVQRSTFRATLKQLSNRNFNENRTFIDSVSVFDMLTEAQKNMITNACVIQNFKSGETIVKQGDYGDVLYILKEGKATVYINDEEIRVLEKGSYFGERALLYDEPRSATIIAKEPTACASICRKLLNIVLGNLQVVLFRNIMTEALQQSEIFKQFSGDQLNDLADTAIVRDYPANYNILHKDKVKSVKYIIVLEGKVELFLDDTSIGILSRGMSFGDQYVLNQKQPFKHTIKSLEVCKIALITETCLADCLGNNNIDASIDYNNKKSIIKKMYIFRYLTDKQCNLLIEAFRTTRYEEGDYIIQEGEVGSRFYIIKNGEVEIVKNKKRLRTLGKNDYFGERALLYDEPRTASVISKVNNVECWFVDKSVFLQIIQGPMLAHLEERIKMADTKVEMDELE
Procedure: as §1, §2

[12] = test system: PfPKG with disabled PfCNB-D; set-up: method as in PMID 12817987; conditions: disabling PfCNB-D by mutation of a putative cGMP-binding residue; cited from earlier work
human PKG Iβ CNB-B = test system: human PKG Iβ CNB-B; set-up: method as in PMID 24239458; conditions: cited from earlier work
PfCNB-C = test system: PfCNB-C; set-up: method as in PMID 12817987; conditions: cited from earlier work
[13] = molecular target: T12, PfCNB-C (residues 275–428) (Plasmodium falciparum, UniProt Q8I719); assay: FP binding measurements, isolated PfCNB-C domain
T12 construct: 275–428 for CNB-C; His-tag (pQTEV, TEV site) (N, cleaved yes); made in house; host or cells: E. coli TP2000 (delta-cya)
T12 sequence (Q8I719 275-428): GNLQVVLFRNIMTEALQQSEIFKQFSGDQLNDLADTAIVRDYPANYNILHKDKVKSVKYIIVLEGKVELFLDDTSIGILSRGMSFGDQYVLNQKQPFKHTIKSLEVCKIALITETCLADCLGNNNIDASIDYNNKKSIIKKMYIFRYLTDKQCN
Source text: A manually designed construct consisting of PfPKG amino acids 1–853 with codons optimized for expression in E.coli was synthesized at Life Technologies. All PfPKG constructs were ligated into the His-tagged bacterial expression vector, pQTEV [28]. In designing the expression constructs of each CNB, we used the sequence of the cGMP selective CNB-B that we recently reported. The domain boundaries for the individual constructs are: residues 1–173 for CNB-A, 158–294 for CNB-B, 275–428 for CNB-C and 401–542 for CNB-D. All PfPKG proteins were expressed in TP2000 E. coli. The cells were grown at 37 °C to an OD600nm of 0.6, then induced with 0.5 mM IPTG, and grown for an additional 10 hours at 25 °C. Cells were harvested by centrifugation, then resuspended in 50 mM potassium phosphate (pH 7.5), 500 mM NaCl and 1 mM β-mercaptoethanol, and lysed using a cell disruptor (Constant Systems).
The direct fluorescence polarization (FP) assay was performed following the procedure from Moll et al. Measurements were performed in 150 mM NaCl, 20 mM MOPS plus 0.005% (w/v) CHAPS pH 7.0 using the Fusion a-FP microtiter plate reader at room temperature in a 384 well microtiterplate (Perkin Elmer, Optiplate, black). The protein concentration was varied while the concentration of 8-Fluo-cAMP/8-Fluo-cGMP (Biolog Life Science Institute (Bremen, Germany)) was fixed at 1–5 nM. […] The KD values were calculated from sigmoidal dose-response curves.
For competition FP experiments, the protein concentration and the concentration of 8-Fluo-cGMP were fixed to give a polarization signal that was 50% of the maximum value obtained from direct FP measurements. […] FP signals were detected as indicated above. Data were analyzed with GraphPad Prism 5.03 by plotting the polarization signal in mPol against the logarithm of the cyclic nucleotide concentration. The EC50 values were calculated from sigmoidal dose-response curves.

[14] = molecular target: T13, PfPKG PfCNB-B (residues 158–294) (Plasmodium falciparum, UniProt Q8I719); assay: Competition FP assay, isolated PfCNB-B domain; format: binding; conditions: competition with 8-Fluo-cGMP, read-out: EC50 ± SEM (n) competition measurements
T13 construct: 158–294 for CNB-B; His-tag (pQTEV, TEV site) (N, cleaved yes); made in house; host or cells: E. coli TP2000 (delta-cya)
Procedure: as §1, §2

[15] = molecular target: T14, PfPKG (1-853) R484A/Q532A/D533A (Plasmodium falciparum, UniProt Q8I719, D533A/Q532A/R484A); format: biochemical; conditions: triple mutant versus wild type
T14 construct: full-length PfPKG (residues 1–853); His-tag (pQTEV, TEV site) (N, cleaved yes); made in house; host or cells: E. coli TP2000 (delta-cya)
T14 sequence (Q8I719 whole entry R484A/Q532A/D533A, the tested form may be a part): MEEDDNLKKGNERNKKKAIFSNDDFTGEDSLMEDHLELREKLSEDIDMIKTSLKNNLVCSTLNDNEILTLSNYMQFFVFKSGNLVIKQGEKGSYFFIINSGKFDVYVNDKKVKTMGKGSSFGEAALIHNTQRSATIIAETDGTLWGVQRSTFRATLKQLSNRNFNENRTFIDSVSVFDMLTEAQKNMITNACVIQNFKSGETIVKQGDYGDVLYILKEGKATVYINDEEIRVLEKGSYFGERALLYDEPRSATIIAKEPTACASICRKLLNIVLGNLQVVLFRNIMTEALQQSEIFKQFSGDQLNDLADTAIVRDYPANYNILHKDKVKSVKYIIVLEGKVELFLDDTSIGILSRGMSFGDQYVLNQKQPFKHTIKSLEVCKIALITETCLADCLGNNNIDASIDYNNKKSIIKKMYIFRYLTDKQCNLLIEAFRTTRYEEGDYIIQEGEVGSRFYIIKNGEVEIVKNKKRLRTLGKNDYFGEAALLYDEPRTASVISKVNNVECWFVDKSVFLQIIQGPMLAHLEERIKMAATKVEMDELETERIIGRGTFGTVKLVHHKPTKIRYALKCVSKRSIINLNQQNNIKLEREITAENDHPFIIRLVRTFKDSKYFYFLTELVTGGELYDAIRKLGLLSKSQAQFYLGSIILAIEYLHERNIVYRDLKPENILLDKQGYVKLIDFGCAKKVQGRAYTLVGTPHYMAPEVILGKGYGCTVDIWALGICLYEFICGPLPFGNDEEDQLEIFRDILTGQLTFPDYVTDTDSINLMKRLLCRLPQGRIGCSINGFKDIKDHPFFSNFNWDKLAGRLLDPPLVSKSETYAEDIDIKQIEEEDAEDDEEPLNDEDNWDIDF
Procedure: (§3) Kinase activity was determined using a microfluidic mobility-shift assay on a Caliper DeskTop Profiler (Caliper Life Sciences, PerkinElmer). […] Reaction mixtures without cyclic nucleotide were used as controls. For electrophoretic separation of substrate and product, a ProfilerPro LabChip (4-sipper mode; Caliper Life Sciences, PerkinElmer) was used under the following conditions: downstream voltage-500 V, upstream voltage-1,900 V with a screening pressure of-1.3 psi.

PfPKG (1-853) D533A = molecular target: T15, PfPKG (1-853) D533A (Plasmodium falciparum, UniProt Q8I719, D533A); format: biochemical
T15 construct: full-length PfPKG (residues 1–853); His-tag (pQTEV, TEV site) (N, cleaved yes); made in house; host or cells: E. coli TP2000 (delta-cya)
T15 sequence (Q8I719 whole entry D533A, the tested form may be a part): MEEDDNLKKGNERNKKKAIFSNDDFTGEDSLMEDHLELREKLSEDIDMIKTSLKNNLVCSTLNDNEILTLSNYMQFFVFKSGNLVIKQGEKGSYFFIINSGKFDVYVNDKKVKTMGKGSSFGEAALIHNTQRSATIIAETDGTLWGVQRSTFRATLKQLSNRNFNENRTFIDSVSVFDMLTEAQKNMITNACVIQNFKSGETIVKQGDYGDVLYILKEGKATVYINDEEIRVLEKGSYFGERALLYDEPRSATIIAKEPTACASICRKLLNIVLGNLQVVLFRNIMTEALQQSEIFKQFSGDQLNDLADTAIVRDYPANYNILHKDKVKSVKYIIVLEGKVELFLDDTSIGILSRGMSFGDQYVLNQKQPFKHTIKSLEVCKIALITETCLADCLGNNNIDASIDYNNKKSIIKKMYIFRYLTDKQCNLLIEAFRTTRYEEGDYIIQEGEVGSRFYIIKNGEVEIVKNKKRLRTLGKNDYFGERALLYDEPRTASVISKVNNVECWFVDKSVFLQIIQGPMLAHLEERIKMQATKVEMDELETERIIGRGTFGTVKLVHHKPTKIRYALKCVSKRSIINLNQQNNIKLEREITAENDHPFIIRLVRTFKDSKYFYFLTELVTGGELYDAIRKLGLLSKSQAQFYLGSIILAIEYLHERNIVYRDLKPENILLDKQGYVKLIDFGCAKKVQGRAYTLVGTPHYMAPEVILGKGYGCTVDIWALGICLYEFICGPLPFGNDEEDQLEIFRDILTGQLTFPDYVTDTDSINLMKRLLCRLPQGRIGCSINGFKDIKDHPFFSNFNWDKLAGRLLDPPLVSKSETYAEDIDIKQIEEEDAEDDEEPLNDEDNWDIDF
Procedure: as §3

PfPKG (1-853) Wild Type = molecular target: T16, PfPKG (1-853) Wild Type (Plasmodium falciparum, UniProt Q8I719); format: biochemical
T16 construct: full-length PfPKG (residues 1–853); His-tag (pQTEV, TEV site) (N, cleaved yes); made in house; host or cells: E. coli TP2000 (delta-cya)
Procedure: as §3

[16] = test system: P. falciparum PfPKGT618Q/R484A/Q532A/D533A-3xHA transgenic line; assay: Growth assay in presence of compound 2, triple mutant line; format: cell-based, Plasmodium falciparum; conditions: 1 μM; duration of the experiment 7 days
Procedure: (§4) P. falciparum lines 3D7/attB [22], 3D7/PfPKGT618Q [6], and 3D7/PfPKG-HA [35] were cultured according to standard procedures in human A+ erythrocytes (National Blood Transfusion Service, UK) and RPMI 1640 medium supplemented with 0.5% Albumax type II (Lifetech) and 5 nM WR99210 (Jacobus Pharmaceuticals, New Jersey).
(§5) P. falciparum cultures were synchronised by repeated sorbitol lysis, then either compound 2 (1μM) or DMSO was added to late trophozoites / early schizonts and cultures harvested 16h later to count newly formed ring stage parasites. Cells were fixed in 4% formaldehyde/0.1% glutaraldehyde in PBS for 30 minutes at room temperature, stained with SYBR green (Lifetech) diluted 1:10000 in PBS for 30 minutes, washed with PBS and analysed on a FACSCalibur cell analyser (Becton Dickinson). FACS data were analysed using FlowJo software. For growth assays, starting parasitaemia was 0.2% ring stages and cultured in presence or absence of compound 2 (1 μM). Samples were taken every 48h and fixed, stained, and analyzed as described above.

PfPKG T618Q mutant = test system: PfPKG T618Q mutant; set-up: method as in PMID 18532880, PMID 19915077, PMID 23675297, PMID 24594931; conditions: T618Q gatekeeper substitution; cited from earlier work
[17] = test system: P. falciparum PfPKGT618Q/R484A-3xHA transgenic line; assay: Growth assay in presence of compound 2, R484A line; format: cell-based, Plasmodium falciparum; conditions: 1 μM; duration of the experiment 7 days
Procedure: as §4, §5

[18] = test system: P. falciparum transgenic lines with the capping triad mutations; assay: Schizont accumulation assay, capping triad mutant lines; format: cell-based, Plasmodium falciparum; conditions: 1 μM; Giemsa-stained blood films
Procedure: as §5, with “Cells were fixed in 4% formaldehyde/0.1% glutaraldehyde in PBS for 30 minutes at room temperature, stained with SYBR green (Lifetech) diluted 1:10000 in PBS for 30 minutes, washed with PBS and analysed on a FACSCalibur cell analyser (Becton Dickinson).” left out

[19] = test system: P. falciparum PfPKGT618Q replacement line and PfPKGT618Q-3xHA control line; assay: Schizont accumulation assay, T618Q lines; format: cell-based, Plasmodium falciparum; conditions: 1 μM; Giemsa-stained blood films
[20] = test system: P. falciparum PfPKGT618Q-3xHA control line; assay: Growth assay in presence of compound 2, T618Q-3xHA control line; format: cell-based, Plasmodium falciparum; conditions: 1 μM; duration of the experiment 7 days
Procedure: as §4, §5

## Nc1nc2c(ncn2[C@@H]2O[C@@H]3COP(=O)(O)O[C@H]3[C@H]2O)c(=O)[nH]1 [cGMP, Cyclic GMP]
[1]
  EC50: 0.96 ± 0.02 µM
[2]
  EC50: 2.4 ± 0.1 µM
[3]
  EC50: 1 µM
[4]
  EC50: 7 µM and 7.2 µM
[5]
  EC50: 0.079 ± 0.004 µM
[6]
  EC50: 0.61 ± 0.05 µM
[7]
  EC50: 1.4 ± 0.1 µM
[8]
  EC50: 3.2 ± 0.4 µM
[9]
  EC50: 0.76 ± 0.04 µM
[10]; PfCNB-D wild type, competition with 8-Fluo-cGMP, read-out: EC50 ± SEM (n) competition experiments
  EC50: 0.038 µM and 0.0378 µM
[10]; PfCNB-D, cGMP over cAMP
  selectivity for cGMP: over 190 fold
[11]
  EC50: 2.2 ± 0.1 µM
[12]
  increase in the activation constant for cGMP (Ka:cGMP): 10 fold
Human PKG Iβ CNB-B
  EC50: 0.215 µM
PfCNB-C
  cGMP binding: could not be detected
[13]
  cGMP binding: little to no binding
[14]
  EC50: 1.2 µM
[15]
  increase of Ka:cGMP on mutating all three residues: over 28 fold
PfPKG (1-853) D533A
  Ka ± SEM (n), activation constant: 330 nM
PfPKG (1-853) Wild Type
  Ka ± SEM (n), activation constant: 66 nM

## CN(C)Cc1ccn2c(-c3ccnc(N)n3)c(-c3ccc(F)cc3)nc2c1 [compound 2]
[16]
  parasite growth in the presence of compound: did not proliferate
PfPKG T618Q mutant
  sensitivity of the kinase to the inhibitor: no longer sensitive
[17]
  parasite growth in the presence of compound: did not proliferate
[18]
  progression from schizont to ring stage parasites: did not progress to ring stage parasites
[19]
  ring stage parasites observed: high levels of ring stage parasites
[20]
  parasite growth in the presence of compound: able to grow at a similar rate to the allelic replacement control line
